From US8343475B2, “Small cationic antimicrobial peptides” (priority 2006, dated 2013)
≈ marks a conversion by molar mass, not a printed value. Residues, ends and D or L forms follow the SMILES beside them. No end group written: not given here.

How the values were obtained:
[1] = tested on: Pseudomonas aeruginosa PAO1 strain H103; type: cell-based; conditions: for MIC P. aerug: PAO1; for antimicrobial activity against P. aeruginosa PAO1 (in words): laboratory strain P. aeruginosa PAO1
Method in brief: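 Modified broth microdilution MIC in Mueller Hinton medium, peptides diluted in 0.01% acetic acid/0.2% BSA, polypropylene plates. Inoculum 2-7×10^5 CFU/ml, overnight at 37 °C; MIC is the lowest concentration with no visible growth.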

[2] = tested on: Enterococcus faecalis ATCC29212; type: cell-based; conditions: ATCC29212
Method in brief: (§1)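 Broth microdilution in Mueller Hinton medium; peptides serially diluted at 10× in 0.01% acetic acid with 0.2% BSA, then added to polypropylene plates. Inoculum 2-7×10^5 CFU/ml from overnight culture, incubated overnight at 37° C. MIC = lowest concentration showing no growth.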

Escherichia coli UB1005 = type: cell-based; conditions: indolicidin substitution variants (Table 4)
Method in brief: as §1

[3] = tested on: Staphylococcus aureus ATCC25923; type: cell-based; conditions: ATCC25923
Method in brief: as §1

[4] = tested on: clinical isolate of Staphylococcus epidermidis; type: cell-based; conditions: clinical isolate of
Method in brief: as §1

[5] = tested on: lab isolate of Candida albicans; type: cell-based; conditions: lab isolate of
Method in brief: as §1

[6] = tested on: wild-type Salmonella enterica ssp. typhimurium; type: cell-based
Method in brief: as §1

[7] = tested on: LPS-stimulated TNFα production in THP-1 cells; experiment: Suppression of P. aeruginosa LPS-stimulated TNFα production (ELISA); type: cell-based, human; conditions: for ability to inhibit TNFα responses compared with indolicidin: 10 ng/ml P. aeruginosa LPS, peptides at 10, 20 and 50 μg/ml (FIG. 13)
Experimental: FIG. 12. Assessment of the ability of peptides to suppress P. aeruginosa LPS (10 ng/ml)-stimulated TNFα production in THP1 cells. Presented results are the mean values for 4 wells performed on 2 separate occasions. The x-axis number labeling is the amount of each peptide in μg/ml for the corresponding peptides.
FIG. 13. Suppression of inflammatory responses by peptides. Monocyte/macrophage-like adherent THP-1 cells were stimulated with 10 ng/ml P. aeruginosa LPS and the resulting TNFα response measured. Peptides were added at 10, 20 and 50 μg/ml. The observed TNF-release was measured by ELISA and related to the 100% value of the untreated (without peptide) cells.
Cytotoxicity and TNFα suppression assay. THP1 cells were cultured in RPMI 1640 medium (supplemented with 10% (v/v) FCS, 1% L-glutamine, and […] sodium pyruvate) in E-toxa-clean (Sigma-Aldrich, Oakville, Ontario, Canada)-washed, endotoxin-free bottle. THP1 cells were counted and 250 μl per well of […] were transferred into a 96 well tissue cultured treated polystyrene microtiterplate (Beckton Dickinson, Franklin Lakes, USA). In addition PMA were added (1.3 nM) and the cells were incubated for three days. After three days the medium were exchanged and Pseudomonas aeruginosa LPS and the peptides were added. The incubation time was four hours and the supernatant was frozen at −20° C. The cells were stained with Tryphan Blue for 2 minutes and washed with PBS two times. The viability of the cells was determined by counting the stained cells over the unstained. The supernatent was used to measure the TNFα production by an ELISA (eBioscience, San Diego, USA) following the manufactures protocol.
LPS from P. aeruginosa strain H103 was highly purified free of proteins and lipids using the Darveau-Hancock method. Briefly, P. aeruginosa was grown overnight in LB broth at 37° C. Cells were collected and washed and the isolated LPS pellets were extracted with a 2:1 chloroform:methanol solution to remove contaminating lipids. Purified LPS samples were quantitated using an assay for the specific sugar 2-keto-3-deoxyoctosonic acid (KDO assay) and then resuspended in endotoxin-free water (Sigma-Aldrich).
Human monocytic cells, THP-1, were obtained from American type culture collection, ATCC® (TIB-202) and were grown in suspension in RPMI-1640 media (Gibco®, Invitrogen™ Life technologies, Burlington, ON), supplemented with 10% (v/v) heat inactivated fetal bovine serum (FBS), 2 mM L-glutamine and 1 mM sodium pyruvate (all from Invitrogen Life Technologies). Cultures were maintained at 37° C. in a humidified 5% (v/v) CO2 incubator up to a maximum of six passages. THP-1 cells at a density of 1×10^6 cells/ml were treated with 0.3 μg/ml phorbol 12-myristate 13-acetate (PMA; Sigma-Aldrich Canada, Oakville ON) for 24 hours, inducing plastic-adherent cells that were further rested in complete RPMI-1640 medium for an additional 24 hours prior to stimulation with various treatments including P. aeruginosa LPS (10 ng/ml) with or without peptides for 24 hours after which supernatants were collected and TNFα assessed by ELISA.
THP-1 cells were stimulated with LPS (10 ng/ml) with or without peptide (10 or 100 μg/ml) for 4 hours as indicated in the results section. Following incubation of the cells under various treatment regimens, the tissue culture supernatants were centrifuged at 1000×g for 5 min, then at 10,000×g for 2 min to obtain cell-free samples. Supernatants were aliquoted and then stored at −20° C. prior to assay for various cytokines. TNFα secretion was detected with a capture ELISA (eBioscience and BioSource International Inc., CA, USA respectively).

[8] = tested on: clinical isolates of MRSA; type: cell-based, Staphylococcus aureus
Method in brief: (§2)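 Modified broth microdilution in Mueller Hinton medium, peptides serially diluted in 0.01% acetic acid with 0.2% BSA in polypropylene plates. Inoculum 2-7×10^5 CFU/ml, overnight incubation at 37° C; MIC taken as lowest concentration with no visible growth.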

ESBL E. cloacae = type: cell-based, Enterobacter cloacae
Method in brief: as §2

[9] = tested on: Liverpool Epidemic Strains; type: cell-based, Pseudomonas aeruginosa
Method in brief: as §2

[10] = tested on: multidrug resistant Brazilian clinical isolates of P. aeruginosa; type: cell-based, Pseudomonas aeruginosa
Method in brief: as §2

[11] = tested on: MCP-1 release by human PBMC; experiment: Chemokine induction in PBMC (capture ELISA); type: cell-based; conditions: background (204) subtracted
Method in brief: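 Heparinized blood from healthy volunteers; Ficoll-isolated human PBMC (7.5×10^5) treated with peptides at 20 or 100 μg/ml for 24 hours at 37° C, 5% CO2. Cell-free supernatants assayed for MCP-1 by capture ELISA.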

[12] = tested on: MCP-3 release by human PBMC; experiment: Chemokine induction in PBMC (capture ELISA); type: cell-based; conditions: background (6) subtracted
Method in brief: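 Human PBMC from healthy donors (Ficoll-isolated), 7.5×10^5 cells at 0.75–1×10^6 cells/ml, treated with peptides at 20 or 100 μg/ml for 24 h at 37° C, 5% CO2. MCP-3 in cell-free supernatants measured by capture ELISA.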

[13] = tested on: CXCL1 (Gro-α) release by human PBMC; experiment: Chemokine induction in PBMC (capture ELISA); type: cell-based; conditions: background (196) subtracted
Method in brief: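 Human PBMC from healthy donors' heparinised blood (Ficoll), 7.5×10^5 cells treated with 20 or 100 μg/ml peptide for 24 h at 37° C, 5% CO2. Cell-free supernatants assayed for CXCL1 by capture ELISA.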

[14] = tested on: ESBL E. coli clinical strain 64771; type: cell-based; conditions: ESBL clinical strain 64771
Method in brief: (§3)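 Broth microdilution in Mueller Hinton medium, peptides serially diluted in 0.01% acetic acid with 0.2% BSA in polypropylene plates. Inoculum 2-7×10^5 CFU/ml, incubated overnight at 37° C. MIC is the lowest concentration with no visible growth.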

[15] = tested on: ESBL Klebsiella pneumonia clinical strain 63575; type: cell-based
Method in brief: as §3

[16] = tested on: multidrug resistant Pseudomonas maltophilia ATCC13637; type: cell-based
Method in brief: as §3

CC[C@H](C)[C@H](N)C(=O)N[C@@H](CC(C)C)C(=O)N1CCC[C@H]1C(=O)N[C@@H](Cc1c[nH]c2ccccc12)C(=O)N[C@@H](CCCCN)C(=O)N[C@@H](Cc1ccccc1)C(=O)N1CCC[C@H]1C(=O)N[C@@H](Cc1c[nH]c2ccccc12)C(=O)N[C@@H](Cc1c[nH]c2ccccc12)C(=O)N1CCC[C@H]1C(=O)N[C@@H](Cc1c[nH]c2ccccc12)C(=O)N[C@@H](CCCNC(=N)N)C(=O)N[C@@H](CCCNC(=N)N)C(N)=O [HH63, ILPWKFPWWPWRR] (H-ILPWKFPWWPWRR-NH2; N-terminus assumed)
MIC P. aerug [1]: 62 µg/mL (≈ 33.2 µM)
MIC E. faecalis [2]: 31 µg/mL (≈ 16.6 µM)
MIC E. coli (Escherichia coli UB1005): 16 µg/mL (≈ 8.57 µM)
MIC S. aureus [3]: 8 µg/mL (≈ 4.28 µM)
MIC S. epi. [4]: 4 µg/mL (≈ 2.14 µM)
MIC C. albicans [5]: 16 µg/mL (≈ 8.57 µM)
MIC S. typhi [6]: 31 µg/mL (≈ 16.6 µM)
ability to inhibit TNFα responses compared with indolicidin [7]: slightly better or equivalent than indolicidin

CC[C@H](C)[C@H](N)C(=O)N[C@@H](CC(C)C)C(=O)N[C@@H](CCCCN)C(=O)N[C@@H](Cc1c[nH]c2ccccc12)C(=O)N[C@@H](CCCCN)C(=O)N[C@@H](Cc1c[nH]c2ccccc12)C(=O)N1CCC[C@H]1C(=O)N[C@@H](Cc1c[nH]c2ccccc12)C(=O)N[C@@H](Cc1c[nH]c2ccccc12)C(=O)N1CCC[C@H]1C(=O)N[C@@H](Cc1c[nH]c2ccccc12)C(=O)N[C@@H](CCCNC(=N)N)C(=O)N[C@@H](CCCNC(=N)N)C(N)=O [HH111, ILKWKWPWWPWRR]
MIC P. aerug [1]: 16 µg/mL (≈ 8.26 µM)
MIC E. faecalis [2]: 31 µg/mL (≈ 16 µM)
MIC E. coli (Escherichia coli UB1005): 8 µg/mL (≈ 4.13 µM)
MIC S. aureus [3]: 8 µg/mL (≈ 4.13 µM)
MIC S. epi. [4]: 4 µg/mL (≈ 2.06 µM)
MIC C. albicans [5]: 8 µg/mL (≈ 4.13 µM)
MIC S. typhi [6]: 31 µg/mL (≈ 16 µM)
ability to inhibit TNFα responses compared with indolicidin [7]: slightly better or equivalent than indolicidin

CC[C@H](C)[C@H](NC(=O)[C@H](C)N)C(=O)N[C@@H](CCCNC(=N)N)C(=O)N[C@@H](CCCNC(=N)N)C(=O)N[C@@H](Cc1c[nH]c2ccccc12)C(=O)N[C@@H](CCCNC(=N)N)C(=O)N[C@H](C(=O)N[C@@H](CCCNC(=N)N)C(=O)N[C@@H](CCCCN)C(N)=O)[C@@H](C)CC [HHC142, AIRRWRIRK] (H-AIRRWRIRK-NH2; N-terminus assumed)
antimicrobial activity against P. aeruginosa PAO1 (in words) [1]: did not return any generally active substances
MIC [2]: >217 µM
MIC [3]: 54 µM (≈ 67.7 µg/mL)
MIC [8]: 54 µM (≈ 67.7 µg/mL)
MIC (ESBL E. cloacae): 108 µM (≈ 135 µg/mL)
MIC [9]: 217 µM (≈ 272 µg/mL)
MIC [10]: >217 µM
Chemokine induction MCP-1 ([11]; 20 μg/ml peptide): 67 pg/mL
Chemokine induction MCP-1 ([11]; 100 μg/ml peptide): -16 pg/mL
Chemokine induction MCP-3 ([12]; 20 μg/ml peptide): 1 pg/mL
Chemokine induction MCP-3 ([12]; 100 μg/ml peptide): 0 pg/mL
Chemokine induction Gro-α ([13]; 20 μg/ml peptide): 59 pg/mL
Chemokine induction Gro-α ([13]; 100 μg/ml peptide): 22 pg/mL
MIC [14]: 108 µM (≈ 135 µg/mL)
MIC [15]: >217 µM
MIC [16]: 108 µM (≈ 135 µg/mL)

CC[C@H](C)[C@H](NC(=O)[C@H](CCCCN)NC(=O)[C@H](CC(C)C)NC(=O)[C@@H](NC(=O)[C@@H](N)C(C)C)C(C)C)C(=O)N[C@H](C(=O)N[C@@H](CCCNC(=N)N)C(=O)N[C@@H](CCCNC(=N)N)C(=O)N[C@@H](Cc1ccccc1)C(N)=O)C(C)C [HHC148, VVLKIVRRF] (H-VVLKIVRRF-NH2; N-terminus assumed)
antimicrobial activity against P. aeruginosa PAO1 (in words) [1]: did not return any generally active substances
MIC [2]: 241 µM (≈ 272 µg/mL)
MIC [3]: 241 µM (≈ 272 µg/mL)
MIC [8]: 241 µM (≈ 272 µg/mL)
MIC (ESBL E. cloacae): 241 µM (≈ 272 µg/mL)
MIC [9]: 241 µM (≈ 272 µg/mL)
MIC [10]: >241 µM
Chemokine induction MCP-1 ([11]; 20 μg/ml peptide): 25 pg/mL
Chemokine induction MCP-1 ([11]; 100 μg/ml peptide): 210 pg/mL
Chemokine induction MCP-3 ([12]; 20 μg/ml peptide): 1 pg/mL
Chemokine induction MCP-3 ([12]; 100 μg/ml peptide): 3 pg/mL
Chemokine induction Gro-α ([13]; 20 μg/ml peptide): 55 pg/mL
Chemokine induction Gro-α ([13]; 100 μg/ml peptide): 60 pg/mL
MIC [14]: 241 µM (≈ 272 µg/mL)
MIC [15]: >241 µM
MIC [16]: 60 µM (≈ 67.7 µg/mL)

HH1010: peptide derived from indolicidin; sequence not in the text shown (ILRWKWRWWRWRR-NH2)
ability to inhibit TNFα responses compared with indolicidin [7]: slightly better or equivalent than indolicidin

HH1011: peptide derived from indolicidin; sequence not in the text shown (RWRWWRWRR-NH2)
ability to inhibit TNFα responses compared with indolicidin [7]: slightly better or equivalent than indolicidin

LL-37 [reference compound]
suppression of LPS-induced TNFα ([7]; P. aeruginosa LPS 10 ng/ml (FIG. 12)): strongly suppressed
